Values after ≈ are worked out from the molar mass of the structure shown.
How the values were obtained:
[1] = target: T1, β-catenin ARD (Homo sapiens, UniProt P35222); assay: Differential scanning fluorimetry (DSF); assay type: binding; conditions: 100 μM compound; 8 µM β-cat; read-out: Protein thermal stability ΔTm
T1 construct: vector pLipK-ARD (residues 150 – 662) was used; 6xHis-Lip (6xHis, lipoyl domain); made in house; host or cells: E. coli BL21(DE3) pRARE2
T1 sequence (P35222 150-662): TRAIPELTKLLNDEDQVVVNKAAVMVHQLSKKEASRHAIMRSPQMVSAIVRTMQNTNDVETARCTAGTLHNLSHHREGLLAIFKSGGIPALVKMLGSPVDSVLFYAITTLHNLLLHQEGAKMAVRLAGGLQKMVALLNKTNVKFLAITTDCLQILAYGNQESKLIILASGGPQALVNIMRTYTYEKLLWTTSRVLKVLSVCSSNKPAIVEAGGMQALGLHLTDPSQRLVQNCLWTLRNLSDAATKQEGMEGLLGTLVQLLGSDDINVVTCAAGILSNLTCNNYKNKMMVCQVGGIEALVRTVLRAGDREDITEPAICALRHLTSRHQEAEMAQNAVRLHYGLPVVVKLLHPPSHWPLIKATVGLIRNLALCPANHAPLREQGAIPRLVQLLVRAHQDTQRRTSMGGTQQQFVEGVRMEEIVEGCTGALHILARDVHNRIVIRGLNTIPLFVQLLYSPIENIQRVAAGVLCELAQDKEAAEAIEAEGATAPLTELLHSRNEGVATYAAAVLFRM
Source text: (§1) We also probed the general effect of 2-SPs on protein stability by using differential scanning fluorimetry (DSF). […] Mutants of the 25 kDa DNA-binding domain of the tumor suppressor p53 are notorious for their reduced thermal stability and denaturation/aggregation propensity.[37] The 56 kDa armadillo domain (ARD) of β-catenin mediates canonical Wnt signaling and plays a central role in embryogenesis and tissue homeostasis.[38] FGE (37 kDa) is the only known activator of human sulfatases, and its stability is susceptible to modification of its cysteines.[39] […]
Human β-catenin armadillo domain. β-catenin sequence was amplified by PCR (KOD DNA polymerase, Merck Millipore) from plasmid templates and cloned into bacterial expression vectors by restriction - free cloning. All plasmids were verified by sequencing. For protein pro duction, bacterial expression vector pLipK-ARD (residues 150 – 662) was used. 6xHis-Lip-tagged recombinant proteins were purified from BL21(DE3) pRARE2 E. coli bacterial strains. Bacteria were grown in LB media supplemented with appropriate antibiotic to OD600 0.6, then dropped to a lower temperature (16 – 24 °C) and induced at OD600 0.8 by addition of 0.4 mM isopropyl β -D-1-thiogalactopyranoside (IPTG). Proteins were expressed overnight and bacteria were subsequently harvested by centrifugation, cell pelle ts shock-frozen in liquid nitrogen and stored at -80°C until use. Cell pellets were re -suspended in lysis buffer (25 mM Tris -HCl pH 8, 200 mM NaCl, 20 mM imidazole, 10 μg/mL DNAse, EDTA -free protease inhibitor cocktail) and lysed with an Emulsiflex C-3 (Avestin). Lysates were cleared by ultracentrifugation (140,000x rcf, 30 minutes, 4°C) and mixed with Ni-NTA agarose. Beads were washed multiple times with lysis buffer, and 6xHisLip - tagged protein was eluted with lysis buffer supplemented with 500 mM imidazo le. The protein was further purified by SEC on a HiPrep26/60 G200 (GE Healthcare) into the final buffer of 200 mM NaCl, 25 mM Tris pH 7.4, 0.06% NaN3, 1 mM DTT, and protein purity was assessed by SDS -PAGE. Pure protein fractions were concentrated using a 1 0 kDa MWCO Vivaspin 20 concentrator (Sartorius) to 17 – 28 mg/mL, then shock frozen as droplets in liquid nitrogen and stored at -80°C until use. […]

[2] = target: T2, p53-Y220C (Homo sapiens, UniProt P04637, M133L/N239Y/N268D/V203A/Y220C); assay: Differential scanning fluorimetry (DSF); assay type: binding; conditions: 100 μM compound; 8 µM p53-Y220C; read-out: Protein thermal stability ΔTm
T2 construct: (residues 94-312); 6xHis/lipoyl domain/TEV protease cleavage site (N, cleaved yes); made in house; host or cells: E. coli C41
Source text: as §1
described.7 Briefly, the N-terminal fusion protein (6xHis/lipoyl domain/TEV protease cleavage site) was overexpressed using E. coli C41 cells in 2xTY medium at 20°C for 16 h and purified using standard Ni-affinity chromatography protocols. […]
was further purified using a Heparin column. Finally, gel filtration chromatography was performed using a Superdex 75 16/60 preparative gel filtration column (GE Healthcare) in a 25 mM KPi (pH 7.2), 150 […]
mM NaCl, and 1 mM TCEP buffer. […]
gel electrophoresis and ESI-MS. […]

[3] = Solubility in KPi buffer by NMR with TMSP internal standard; conditions: 50 mM KPi aqueous buffer, pH 7, aqueous with cosolvent or surfactant or cyclodextrin, kinetic from dmso stock
Description: Stability and solubility assays
transferred to the NMR instrument for acquisition. 1H spectra (16 scans) were recorded every 10 minutes under water suppression conditions. Following acquisition, spectra were analysed using
TopSpin. Normalised integrations of the pyrimidine aromatic 1H signals in the starting material and
product were plotted as a function of time (s), using the TMSP peak as standard for integral
calibration/normalisation and monitoring of compound solubility, allowing extraction of pseudo first
order reaction rate constants (k’). Second order rate constants (k) were back calculated from the ratio
of the pseudo first counterparts and the concentration of thiol in solution.
was confirmed by formation of a single S-arylated product (characteristic 2-alkylthioether signals),
concomitant with formation of the sulfinic acid by -product (leaving group). Hydrolytic stability
assessment was performed at pH 7.0 and pH 8.2 in a similar manner, in the absence of thiol.
Chemoselectivity. Similarly, but replacing GSH by other amino acids , reference 2-
methylsulfonylpyrimidine 4q in 50 mM KPi (pH 8.2) was incubated with 10 equivalents of either Boc-
Lys-OH, L-ser-OMe, N-Ac-Tyr-OH or Proline were used.

[4] = target: T3, FGE-C341S (Homo sapiens, UniProt Q8NBK3, C341S); assay: Differential scanning fluorimetry (DSF); assay type: binding; conditions: 100 μM compound; 10 µM FGE; read-out: Protein thermal stability ΔTm
T3 construct: His7 (C); made in house; host or cells: High Five insect cells (baculovirus, pAcGP67B-His7)
T3 sequence (Q8NBK3 34-374 C341S): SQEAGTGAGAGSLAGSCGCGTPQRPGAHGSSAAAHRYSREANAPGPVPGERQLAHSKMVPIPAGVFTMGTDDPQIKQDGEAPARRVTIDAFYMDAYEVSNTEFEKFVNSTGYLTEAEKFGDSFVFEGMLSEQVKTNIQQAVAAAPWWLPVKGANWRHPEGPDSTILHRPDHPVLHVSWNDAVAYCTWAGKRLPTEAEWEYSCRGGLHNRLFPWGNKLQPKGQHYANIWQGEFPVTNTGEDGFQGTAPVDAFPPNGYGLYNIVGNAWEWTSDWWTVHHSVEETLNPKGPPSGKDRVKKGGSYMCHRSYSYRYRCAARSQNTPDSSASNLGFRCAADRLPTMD
Source text: as §1
The cloning of human FGE-WT cDNA into baculoviral transfer vector pAcGP67B-His7 and the generation of the recombinant virus (in Sf9 cells) for expression of C-terminally His-tagged recombinant human FGE in High Five insect cells have been […]
were generated by site -directed PCR mutagenesis using pAcGP67B-FGE-WT-His7 as template and the […]
-3’. All expression plasmids were verified by sequencing of the entire coding region to exclude any undesired PCR -derived errors. The purification method was essentially performed as described in Peng et al., with one modification. The size exclusion […]
chromatography (His -trap) step foll owed directly by a second step purification using the ion -exchange column chromatography (Resource -Q). […]

Row | SMILES | ΔTm at 100 µM [1] [°C] | ΔTm at 100 µM [2] [°C] | solubility [3] [µM] | ΔTm at 100 µM [4] [°C]
1 | CS(=O)(=O)c1ncc(I)cn1 [4u] | -0.1 ± 0.1 | 0.4 | ≥ 2000 | -0.2 ± 0.3
2 | Nc1ccc(S(=O)(=O)c2ncccn2)cc1 [5b] | -0.1 ± 0.1 | -0.2 ± 0.1 | ≥ 2000 | -0.4 ± 0.3
3 | Cc1cc(C)nc(S(C)(=O)=O)n1 [4a] | -0.1 ± 0.1 | 0 | ≥ 2000 | 0
4 | CS(=O)(=O)c1nccc(C(=O)O)n1 [4d] | -0.1 ± 0.1 | 0.2 | ≥ 2000 | -0.4 ± 0.3
5 | O=S(=O)(c1ccccc1)c1ncccn1 [5d] | -0.1 ± 0.1 | 0 | ≥ 2000 | -0.4 ± 0.3
6 | CS(=O)(=O)c1ncc(Br)cn1 [4t] | -0.7 ± 0.1 | 0.4 | ≥ 2000 | -0.4 ± 0.3
7 | CC(C)(C)S(=O)(=O)c1ncccn1 [5a] | -0.1 ± 0.1 | 0.2 | ≥ 2000 | -0.2 ± 0.3
8 | COC(=O)c1ccnc(S(C)(=O)=O)n1 [4k] | -0.1 ± 0.1 | 0.4 | ≥ 2000 | -0.4 ± 0.3
9 | Cc1ccnc(S(C)(=O)=O)n1 [4c] | -0.1 ± 0.1 | -0.2 ± 0.1 | ≥ 2000 | -0.6
10 | COc1cc(OC)nc(S(C)(=O)=O)n1 [4f, 4,6-dimethoxy-2-methylsulfonylpyrimidine] | -0.1 ± 0.1 | -0.2 ± 0.1 | ≥ 2000 | 0
11 | COc1ccnc(S(C)(=O)=O)n1 [4b] | -0.1 ± 0.1 | 0.2 | ≥ 2000 | 0
12 | O=S(=O)(NCc1ccccc1)c1ncccn1 [5g] | 0.3 ± 0.3 | 0.2 | ≥ 2000 | 0
13 | CS(=O)(=O)c1nccc(C(F)(F)F)n1 [4l] | -1.7 ± 0.4 | 1.8 | ≥ 2000 | -0.6
14 | CS(=O)(=O)c1nccc(-c2ccccc2)n1 [4e] | -0.1 ± 0.1 | 0.2 | < 2000 | -0.2 ± 0.3
15 | CCCCS(=O)(=O)c1ncccn1 [5c] | -0.1 ± 0.1 | 0 | ≥ 2000 | -0.4 ± 0.3
16 | CS(=O)(=O)c1ncccn1 [4q, 2-methylsulfonylpyrimidine] | -0.1 ± 0.1 | -0.2 ± 0.1 | ≥ 2000 | -0.6
17 | CS(=O)(=O)c1ncc(C(F)(F)F)cn1 [4x] | -3.1 ± 0.6 | 0.8 | ≥ 2000 | -0.6
18 | CS(=O)(=O)c1nccc(C(N)=O)n1 [4j] | -0.3 ± 0.3 | -0.2 ± 0.1 | – | -0.6
19 | CS(=O)(=O)c1ncc(-c2ccccc2)cn1 [4p] | -0.1 ± 0.1 | 0.2 | < 2000 | -0.2 ± 0.3
20 | CS(=O)(=O)c1ncc(Br)c(C(=O)O)n1 [4i] | -0.1 ± 0.1 | 0.8 | – | -0.6
21 | CS(=O)(=O)c1nccc(N)n1 [4g] | -0.1 ± 0.1 | -0.2 ± 0.1 | ≥ 2000 | -0.4 ± 0.3
22 | O=S(=O)(Oc1c(F)c(F)c(F)c(F)c1F)c1ncccn1 [5h] | -0.1 ± 0.1 | 0.4 | 100 (≈ 32.6 µg/mL) | -0.2 ± 0.3
23 | O=[N+]([O-])c1ccc(S(=O)(=O)c2ncccn2)cc1 [5f] | -0.1 ± 0.1 | 0.4 | 100 (≈ 26.5 µg/mL) | -0.4 ± 0.3
24 | O=S(=O)(CC(F)(F)F)c1ncccn1 [5e] | -6.9 ± 1 | 1.8 | ≥ 2000 | -0.6
25 | CS(=O)(=O)c1ncc(C(=O)O)cn1 [4v] | -1.3 ± 0.1 | 3 | ≥ 2000 | -0.4 ± 0.3

Source: publication PMC10515483, “Structure–Reactivity Studies of 2-Sulfonylpyrimidines Allow Selective Protein Arylation” (Bioconjugate Chemistry, 2023)
